Source: US20220048987A1, “METHOD OF TREATMENT TO PREVENT OR REVERSE AGE-ASSOCIATED INFLAMMATION, COGNITIVE DECLINE, AND NEURODEGENERATION” (The Board of Trustees of the Leland Stanford Junior …, priority 2020, published 2022)
“Also recorded” adds a separate entry of the source.

Columns and labels:
Assay type in all cases: in vivo, mouse
[1] = tested on: aged mice; assay: Chemokine and cytokine multiplex assay of plasma and hippocampus of treated mice; details: aged (20-22 mo) mice, 2.5 mg/kg/d by gavage, 6 weeks
Procedure: PGE2, Butaprost, PF04418948 and Iloprost were purchased from Millipore-Sigma (Burlington, Mass., USA). ONO-AE248 and ONO-AE1-329 were gifts from Ono Pharmaceuticals (Osaka, Japan). Compound 52 (Charnwood Molecular Ltd, Loughborough, UK) and PF04418948 (Millipore-Sigma, Burlington, Mass., USA) were resuspended in 40% PEG (Sigma-Aldrich) and 60% of a 30% Kolliphor HS15 solution (Sigma-Aldrich), and administered orally at 10 mg/kg/d and 2.5 mg/kg/d, respectively. U-^13C-Glucose, U-^13C-Lactate, U-^13C-Glutamine, and U-^13C-Pyruvate were purchased from Cambridge Isotopes (Tewksbury, Mass., USA). HUSH-29 plasmids containing shRNAs to human GYS1 were purchased from Origene Technologies (Rockville, Md., USA). Human monocyte derived macrophages were incubated with 1640 Media with GlutaMAX+HEPES without sodium pyruvate (ThermoFisher, catolog No. 72400146). […]
Hippocampal lysates or mouse plasma were stored at −80° C. and cytokine analysis was carried out at the Human Immune Monitoring Core (Stanford University) or Eve Technologies (Calgary, Alberta, Canada) using Luminex mouse 39-plex kits and Human 71-plex kits. Plates were read using a Luminex LabMap200 instrument or a MSD Chemiluminescence instrument with a lower bound of 100 beads per sample per measured cytokine. […] Mean fluorescence intensity (MFI) was averaged over duplicate wells for each cytokine per sample on each plate. […]

[2] = tested on: aged mice; assay: Nanostring transcriptomics of peritoneal macrophages from treated mice
Procedure: For gene expression analysis on the NanoString nCounter system, 100 ng of RNA was hybridized to a multiplexed nucleotide probe pool for 16 hours at 65° C. Enriched targets were purified and quantified using the nCounter MAX Analysis System. NanoString data analysis was performed by Canopy Biosciences (St. Louis, Mo.). Raw counts were normalized using the geometric mean of both positive control probes (technical variability) and housekeeping gene probes (assay input variability). Normalized data was uploaded to the interactive analysis platform Rosalind (https://rosalind.onramp.bio/), with a HyperScale architecture developed by OnRamp BioInformatics, Inc. (San Diego, Calif.) Read Distribution percentages, violin plots, identity heatmaps, and sample MDS plots were generated as part of the QC step. The limma R library1 was used to calculate fold changes and p-values and perform optional covariate correction. Clustering of genes for the final heatmap of differentially expressed genes was done using the PAM (Partitioning Around Medoids) method using the fpc R library2 that takes into consideration the direction and type of all signals on a pathway, the position, role and type of every gene, etc. Functional enrichment analysis of pathways, gene ontology, domain structure and other ontologies was performed using HOMER3. Several database sources were referenced for enrichment analysis, including Interpro4, NCBI5, MSigDB6,7, REACTOME8, WikiPathways9. Enrichment was calculated relative to a set of background genes relevant for the experiment.

[3] = Measurement of PF04418948 in plasma and brain (LC/MS/MS); details: aged (20-22 mo) mice, 2.5 mg/kg/d, 6 weeks, perfused brain
Procedure: Presence of PF04418948 was measured in aged (20-22 mo) mice treated with PF04418948 2.5 mg/kg/d for 6 weeks in plasma and perfused brain by LC/MS/MS at Quintara Discovery (Hayward, Calif., USA). In brief, brain samples were first homogenized in 2 volumes of ice-cold water, then further 2 fold diluted in blank plasma. An aliquot of 20 μL of each plasma sample or plasma diluted tissue homogenate was treated with 100 μL of acetonitrile containing internal standard (Terfenadine). The mixture was vortexed on a shaker for 15 minutes and subsequently centrifuged at 4000 rpm for 15 minutes. An aliquot of 70 μL of the extract was transferred to an injection plate and reconstituted in 70 μL of water for LC/MS/MS injection. Calibration standards and quality control samples were prepared by spiking the testing compound into blank plasma followed by processing with the samples.

[4] = tested on: aged mice; assay: Electrophysiology: hippocampal CA1 long-term potentiation (LTP); details: aged (20-22 mo) mice, 2.5 mg/kg/d, 6 weeks; 2.5 mg/kg/day
Procedure: To measure the cellular mechanism of learning and memory, a modified protocol previously described (Latif-Hernandez et al., Frontiers in cellular neuroscience 10, 252, (2016), incorporated herein by reference) was used. Mice were euthanized by cervical dislocation, and hippocampus (HC) was rapidly dissected out into ice-cold (4° C.) artificial cerebrospinal fluid (ACSF), saturated with carbogen (95% O2/5% CO2). ACSF consisted of (in mM): 124 NaCl, 4.9 KCl, 24.6 NaHCO3, 1.20 KH2PO4, 2.0 CaCl2, 2.0 MgSO4, 10.0 glucose, pH 7.4. […] Slices were carefully positioned on a R6501A multi-electrode array (Alpha MED Scientific Inc., Osaka, Japan) with electrodes arrayed in an 8×2 matrix with interpolar distance of 150 μm; each matrix measured 50 μm×50 μm. After 30 min incubation, the field excitatory postsynaptic potentials (fEPSPs) in CA1 were recorded by stimulating downstream electrodes in the CA1 and CA3 regions along the Schaffer collateral pathway. […] The time course of the fEPSP was calculated as the descending slope function for all experiments. […] The mean baseline fEPSP value was calculated and percentage change from baseline after the TBS was analyzed for LTP.

[5] = aged mice, 2.5 mg/kg/d, 6 weeks

For `COc1ccc2cc(OCC3(C(=O)O)CN(C(=O)c4ccc(F)cc4)C3)ccc2c1` [PF-04418948], which “pro-inflammatory factors in blood and hippocampus” value [1] is on record?
The value was “reduced levels of pro-inflammatory factors not only in blood but also in hippocampus”.

What about the “expression of glycolytic and TCA genes in peritoneal macrophages” value ([2]; aged (20-22 mo) mice, 2.5 mg/kg/d for 6 weeks) of the same compound?
Its value is “restores expression levels of glycolytic and TCA genes in aged mice”.

What about the “age-related upregulation of pro-inflammatory gene transcripts and downregulation of glycolytic and TCA gene transcripts in macrophages” value [2, 5] of the same compound?
The value was “reciprocally reversed”.

And the “top differentially regulated chemokine and cytokine transcripts in peritoneal macrophages” value [2, 5]?
The value was “shifts expression towards young macrophage levels”.

And the “transcriptome of peritoneal macrophages (clustering of 1449 genes, PCA)” value ([2]; young (3-4 mo) and aged (20-22 mo) mice, 2.5 mg/kg/d, 6 weeks, 2.5 mg/kg/day)?
The value was “cluster with young mice treated with vehicle or PF-04418948; also recorded: significant shift away from vehicle-treated aged mice toward young macrophages”.

And the “brain level (whole brain lysates)” value [3]?
The value was “not detected”.

What about the “LTP in CA1 hippocampal region of aged mice” value [4] of the same compound?
The value was “restored hippocampal memory function as well as LTP to youthful levels; also recorded: rescued”.
